Test results from publication PMC3945637 (Frontiers in Pharmacology, 2014).
Several values for one entry are separate records, joined by “and”; a condition that tells them apart may be missing. Equal values may be shown once. Read-outs that look alike come from different tables or passages of the source. Peptide text beside a SMILES is read from it.

Tests used:
[1] = biological target: T1, BK B2R (human umbilical vein rings) (Homo sapiens, UniProt P30411); assay: Human isolated umbilical vein contractility assay; type: cell-based; conditions: for +Peptidase inhibitor log(EC50) ± SE / Control (DMSO vehicle) log(EC50) ± SE: log of contractile EC50; for Control (DMSO vehicle) log(EC50) ± SE: no peptidase inhibitor, paired tissues; for reduction of contractile potency by Plummer's inhibitor: Plummer's inhibitor vs control tissues; for decrease of apparent contractile potency by ACE blockade: enalaprilat 1 μM vs paired control tissues; for fold less potent than BK as contractile agent: control conditions, vs BK
T1 construct: from tissue; host or cells: human umbilical vein rings
T1 sequence (P30411 1-391): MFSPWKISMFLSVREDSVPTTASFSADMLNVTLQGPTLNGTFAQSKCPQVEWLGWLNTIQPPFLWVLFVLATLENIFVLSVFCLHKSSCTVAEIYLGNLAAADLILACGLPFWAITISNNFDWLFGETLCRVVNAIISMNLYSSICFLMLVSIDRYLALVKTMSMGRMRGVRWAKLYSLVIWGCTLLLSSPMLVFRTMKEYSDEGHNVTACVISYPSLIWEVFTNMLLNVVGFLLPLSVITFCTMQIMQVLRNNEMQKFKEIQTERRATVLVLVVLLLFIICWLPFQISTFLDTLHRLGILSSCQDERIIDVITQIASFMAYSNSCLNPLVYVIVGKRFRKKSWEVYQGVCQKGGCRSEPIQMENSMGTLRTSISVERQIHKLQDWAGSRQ
Excerpt: The institutional research ethics board (CHU de Québec) approved the anonymous use of human umbilical cord segments obtained after elective cesarean section deliveries. Informed consent was obtained from mothers. […] Tissues were used only once and discarded; controls curves were obtained from other vascular rings from the same vein.
(§1) Results are presented as mean ± SEM. Radioligand binding data were fitted by non-linear regression to a one-site competition equation using a least-square method (Prism 4.0, GraphPad Software Inc., San Diego, CA, USA) and IC50 values calculated from this procedure. The same computer program was used to draw concentration-effect curves (least square fitting of sigmoidal dose-response equation with variable slope) and to derive contractile EC50 values. The qualitative effect of treatments on the distribution of the B2R-GFP fluorescent protein (either located at the plasma membrane or submitted to internalization) was evaluated for each HEK 293 cell in large microphotographic records and proportion of affected cells were compared using the χ^2 statistics to determine drug effect on the subcellular receptor distribution.

[2] = biological target: T2, rabbit B2R-green fluorescent protein (B2R-GFP) (Oryctolagus cuniculus, UniProt Q28642); assay: [3H]BK binding competition to B2R-GFP stably expressed in intact HEK 293 cells; conditions: for IC50 for B2R-GFP relative to unlabeled BK (fold greater IC50 / lower affinity): [3H]BK binding competition, vs BK; for [3H]BK binding to B2R-GFP log(IC50) ± SE: log of IC50, 3 nM [3H]BK, 0 °C, with peptidase inhibitors incl. captopril, HEK 293 cells
T2 construct: expressed in transfected cells
T2 sequence (Q28642 1-367): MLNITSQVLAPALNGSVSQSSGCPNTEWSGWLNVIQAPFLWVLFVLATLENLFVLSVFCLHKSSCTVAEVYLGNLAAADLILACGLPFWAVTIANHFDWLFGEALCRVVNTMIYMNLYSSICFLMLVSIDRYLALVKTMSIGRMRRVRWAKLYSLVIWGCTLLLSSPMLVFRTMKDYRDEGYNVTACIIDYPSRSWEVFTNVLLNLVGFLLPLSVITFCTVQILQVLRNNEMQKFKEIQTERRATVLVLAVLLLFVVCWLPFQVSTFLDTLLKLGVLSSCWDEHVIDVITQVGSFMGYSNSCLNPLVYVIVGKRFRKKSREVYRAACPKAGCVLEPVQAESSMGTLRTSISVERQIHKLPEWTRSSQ
Experimental: (§2) Affinity for the B2R was evaluated using a radioligand binding competition assay performed at 0 °C in the presence of peptidase inhibitors that included captopril ([Houle et al., 2000]). […] Other HEK 293a cells that transiently expressed human recombinant ACE were used to perform a [^3H]enalaprilat binding assay as described ([Koumbadinga et al., 2010]; the peACE vector was a gift from Prof. P. Corvol, Paris, France).
as §1

human B1R (B1R-FLAG) = biological target: T3, human B1R (B1R-FLAG) (Homo sapiens, UniProt P46663); assay: [3H]Lys-des-Arg9-BK binding competition to B1R-FLAG transiently expressed in HEK 293a cells; conditions: for [3H]Lys-des-Arg9-BK binding to B1R-FLAG log(IC50) ± SE: log of IC50, 1 nM [3H]Lys-des-Arg9-BK, HEK 293a cells
T3 construct: FLAG; expressed in transfected cells
T3 sequence (P46663 1-353): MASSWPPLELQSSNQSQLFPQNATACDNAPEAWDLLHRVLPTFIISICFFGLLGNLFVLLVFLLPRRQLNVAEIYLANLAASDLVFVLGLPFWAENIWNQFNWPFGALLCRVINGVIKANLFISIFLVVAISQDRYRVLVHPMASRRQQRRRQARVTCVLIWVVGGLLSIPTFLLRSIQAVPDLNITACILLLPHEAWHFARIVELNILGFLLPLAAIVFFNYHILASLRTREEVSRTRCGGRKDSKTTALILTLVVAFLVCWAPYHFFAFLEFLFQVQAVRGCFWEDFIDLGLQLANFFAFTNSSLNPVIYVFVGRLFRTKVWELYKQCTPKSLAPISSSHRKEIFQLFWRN

human recombinant ACE = human recombinant ACE (Homo sapiens, UniProt P12821); assay: [3H]enalaprilat binding competition to recombinant ACE transiently expressed in HEK 293a cells; design: expressed in transfected cells; host or cells: HEK 293a cells, transient expression (peACE vector, gift from Prof. P. Corvol); conditions: for fold lesser affinity vs. BK for ACE: [3H]enalaprilat binding competition; for [3H]enalaprilat binding to ACE log(IC50) ± SE: log of IC50, 2 nM [3H]enalaprilat, HEK 293a cells
Experimental: as §2, §1

[3] = biological target: endogenous B2 receptor of the human umbilical vein (human (endogenous in umbilical vein)) (UniProt P30411)
[4] = biological target: rabbit B2R-green fluorescent protein (rabbit) (UniProt Q28642); assay: radioligand binding; competition of 3 nM [^3H]BK binding to adherent intact HEK 293 cells stably expressing rabbit B2R-GFP by unlabeled peptides; 0 °C; peptidase inhibitors that included captopril; one-site competition fit
[5] = biological target: human B1R (B1R-FLAG vector) (human) (UniProt P46663); assay: radioligand binding; competition of 1 nM [^3H]Lys-des-Arg^9-BK binding to HEK 293a cells transiently expressing human B1R (B1R-FLAG vector); one-site competition fit
[6] = enalaprilat 1 μM, 30 min before agonist

human recombinant ACE, sequence (P12821 30-1306): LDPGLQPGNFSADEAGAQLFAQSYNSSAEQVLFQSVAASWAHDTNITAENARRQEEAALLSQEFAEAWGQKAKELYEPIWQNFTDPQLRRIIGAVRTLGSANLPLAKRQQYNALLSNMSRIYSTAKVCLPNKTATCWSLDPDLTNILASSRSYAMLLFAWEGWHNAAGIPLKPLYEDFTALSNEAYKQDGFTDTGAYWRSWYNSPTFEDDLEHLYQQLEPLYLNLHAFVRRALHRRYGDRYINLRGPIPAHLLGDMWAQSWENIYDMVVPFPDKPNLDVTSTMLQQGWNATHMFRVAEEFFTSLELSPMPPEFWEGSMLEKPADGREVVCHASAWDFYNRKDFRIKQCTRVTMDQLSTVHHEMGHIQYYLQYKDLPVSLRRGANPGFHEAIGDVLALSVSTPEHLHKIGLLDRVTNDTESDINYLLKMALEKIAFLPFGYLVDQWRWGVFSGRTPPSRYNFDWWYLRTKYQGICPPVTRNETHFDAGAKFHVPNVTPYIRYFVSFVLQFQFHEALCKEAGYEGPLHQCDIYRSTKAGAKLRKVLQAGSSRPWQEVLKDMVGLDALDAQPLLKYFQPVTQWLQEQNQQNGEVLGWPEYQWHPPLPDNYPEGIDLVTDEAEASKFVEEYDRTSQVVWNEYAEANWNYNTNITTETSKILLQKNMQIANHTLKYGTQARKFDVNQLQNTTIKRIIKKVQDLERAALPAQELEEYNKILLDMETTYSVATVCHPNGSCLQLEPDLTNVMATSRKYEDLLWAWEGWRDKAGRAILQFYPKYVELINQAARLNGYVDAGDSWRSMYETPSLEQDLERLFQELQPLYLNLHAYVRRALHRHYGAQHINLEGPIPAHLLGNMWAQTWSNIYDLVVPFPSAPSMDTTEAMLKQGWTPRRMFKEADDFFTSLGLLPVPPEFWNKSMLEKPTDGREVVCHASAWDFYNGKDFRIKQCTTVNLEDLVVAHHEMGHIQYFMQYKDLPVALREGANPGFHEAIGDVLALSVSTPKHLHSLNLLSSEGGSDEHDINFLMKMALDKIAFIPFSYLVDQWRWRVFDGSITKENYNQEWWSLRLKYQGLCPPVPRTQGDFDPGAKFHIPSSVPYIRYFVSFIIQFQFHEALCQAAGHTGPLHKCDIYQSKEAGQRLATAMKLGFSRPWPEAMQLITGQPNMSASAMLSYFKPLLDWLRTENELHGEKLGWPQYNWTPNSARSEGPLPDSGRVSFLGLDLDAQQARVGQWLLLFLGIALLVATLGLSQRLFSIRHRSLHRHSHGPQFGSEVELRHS

Compound	Control (DMSO vehicle) log(EC50) ± SE [1]	IC50 for B2R-GFP relative to unlabeled BK (fold greater IC50 / lower affinity) [2] [fold]	[3H]BK binding to B2R-GFP log(IC50) ± SE [2]	decrease of apparent contractile potency by ACE blockade [1]	[3H]Lys-des-Arg9-BK binding to B1R-FLAG log(IC50) ± SE (human B1R (B1R-FLAG))	fold less potent than BK as contractile agent [1] [fold]	+Peptidase inhibitor log(EC50) ± SE [1, 6]	fold lesser affinity vs. BK for ACE (human recombinant ACE) [fold]	[3H]enalaprilat binding to ACE log(IC50) ± SE (human recombinant ACE)	other results
N=C(N)NCCC[C@H](NC(=O)[C@H](Cc1ccccc1)NC(=O)[C@@H]1CCCN1C(=O)[C@H](CO)NC(=O)[C@H](Cc1ccccc1)NC(=O)CNC(=O)[C@@H]1CCCN1C(=O)[C@@H]1CCCN1C(=O)[C@H](CCCNC(=N)N)NC(=O)[C@@H]1CCCN1C(=O)[C@@H](N)CCCNC(=N)N)C(=O)O [Arg-Pro-BK] (H-RPRPPGFSPFR-OH; N-terminus and C-terminus assumed)	-7.39 ± 0.06	1.6	-7.61 ± 0.09							effect of DPP-IV inhibitor NVP-DPP728 on apparent contractile potency (in words) ([1]; NVP-DPP728 1 μM): did not show a loss of apparent potency; effect of aminopeptidase inhibitor amastatin on contractile effect (in words) ([1]; amastatin 3 μM): failed to modify; +Peptidase inhibitor log(EC50) ± SE ([1]; NVP-DPP728 1 μM): -7.29 ± 0.03; +Peptidase inhibitor log(EC50) ± SE ([1]; amastatin 3 μM): -7.35 ± 0.07
N=C(N)NCCC[C@H](NC(=O)[C@H](Cc1ccccc1)NC(=O)[C@@H]1CCCN1C(=O)[C@H](CO)NC(=O)[C@H](Cc1ccccc1)NC(=O)CNC(=O)[C@@H]1CCCN1C(=O)[C@@H]1CCCN1C(=O)[C@@H](N)CCCNC(=N)N)C(=O)O [BK, Bradykinin, reference compound] (H-RPPGFSPFR-OH)				not changed						reduction of contractile potency by Plummer's inhibitor [1]: did not affect
NC(N)=NCCC[C@H](NC(=O)[C@H](Cc1ccccc1)NC(=O)[C@@H]1CCCN1C(=O)[C@H](CO)NC(=O)[C@H](Cc1ccccc1)NC(=O)CNC(=O)[C@@H]1CCCN1C(=O)[C@@H]1CCCN1C(=O)[C@@H](N)CCCN=C(N)N)C(=O)O [BK, Bradykinin, reference compound] (H-RPPGFSPFR-OH)										IC50 (human B1R (B1R-FLAG)): > 10 µM; IC50 (human recombinant ACE): 1550 nM; IC50 [2]: 15.8 nM
C[C@H](NC(=O)[C@H](CCCNC(=N)N)NC(=O)[C@H](Cc1ccccc1)NC(=O)[C@@H]1CCCN1C(=O)[C@H](CO)NC(=O)[C@H](Cc1ccccc1)NC(=O)CNC(=O)[C@@H]1CCCN1C(=O)[C@@H]1CCCN1C(=O)[C@@H](N)CCCNC(=N)N)C(=O)N1CCC[C@H]1C(=O)O [BK-Ala-Pro] (H-RPPGFSPFRAP-OH; N-terminus and C-terminus assumed)	-6.59 ± 0.07		-5.11 ± 0.16		>-5	14.1	-5.55 ± 0.06	2.23	-5.46 ± 0.11	
Arg-Pro-BK (peptide)										log(EC50) of contraction of the human isolated umbilical vein, control (DMSO vehicle), Figure 5B [3]: -7.39 log M; log(EC50) of contraction of the human isolated umbilical vein, with NVP-DPP728 1 μM, Figure 5B [3]: -7.29 log M; log(EC50) of contraction of the human isolated umbilical vein, with amastatin 3 μM, Figure 5B [3]: -7.35 log M; log(IC50) [4]: -7.61 log M
BK-Arg (peptide)										log(IC50) [4]: -6.34 log M; log(IC50) [5]: -5.12 log M

Further lines, with some results ahead:

Control (DMSO vehicle) log(EC50) ± SE [1]	IC50 for B2R-GFP relative to unlabeled BK (fold greater IC50 / lower affinity) [2] [fold]	[3H]BK binding to B2R-GFP log(IC50) ± SE [2]	decrease of apparent contractile potency by ACE blockade [1]	[3H]Lys-des-Arg9-BK binding to B1R-FLAG log(IC50) ± SE (human B1R (B1R-FLAG))	fold less potent than BK as contractile agent [1] [fold]	+Peptidase inhibitor log(EC50) ± SE [1, 6]	fold lesser affinity vs. BK for ACE (human recombinant ACE) [fold]	[3H]enalaprilat binding to ACE log(IC50) ± SE (human recombinant ACE)	Compound	other results
-6.67 ± 0.08	29	-6.34 ± 0.11		-5.12 ± 0.10					N=C(N)NCCC[C@H](NC(=O)[C@H](CCCNC(=N)N)NC(=O)[C@H](Cc1ccccc1)NC(=O)[C@@H]1CCCN1C(=O)[C@H](CO)NC(=O)[C@H](Cc1ccccc1)NC(=O)CNC(=O)[C@@H]1CCCN1C(=O)[C@@H]1CCCN1C(=O)[C@@H](N)CCCNC(=N)N)C(=O)O [BK-Arg] (H-RPPGFSPFRR-OH; N-terminus and C-terminus assumed)	IC50 (human B1R (B1R-FLAG); competition of [3H]Lys-des-Arg9-BK binding, read-out: IC50 for recombinant human B1R): 7.6 µM; reduction of contractile potency by Plummer's inhibitor [1]: 15 fold; +Peptidase inhibitor log(EC50) ± SE ([1]; Plummer's inhibitor 1 μM): -5.49 ± 0.07
-6.61 ± 0.11	363	-5.24 ± 0.20	18 fold and 18.3 fold	>-5	13.5	-5.34 ± 0.06	3.33	-5.28 ± 0.22	CC(C)C[C@H](NC(=O)[C@H](Cc1c[nH]cn1)NC(=O)[C@H](CCCNC(=N)N)NC(=O)[C@H](Cc1ccccc1)NC(=O)[C@@H]1CCCN1C(=O)[C@H](CO)NC(=O)[C@H](Cc1ccccc1)NC(=O)CNC(=O)[C@@H]1CCCN1C(=O)[C@@H]1CCCN1C(=O)[C@@H](N)CCCNC(=N)N)C(=O)O [BK-His-Leu] (H-RPPGFSPFRHL-OH; N-terminus and C-terminus assumed)	
-6.90 ± 0.09	102	-5.79 ± 0.13	3.9 fold	>-5	6.9	-6.32 ± 0.06	3.94	-5.21 ± 0.15	N=C(N)NCCC[C@H](NC(=O)[C@H](Cc1ccccc1)NC(=O)[C@@H]1CCCN1C(=O)[C@H](CO)NC(=O)[C@H](Cc1ccccc1)NC(=O)CNC(=O)[C@@H]1CCCN1C(=O)[C@@H]1CCCN1C(=O)[C@@H](N)CCCNC(=N)N)C(=O)N[C@@H](CO)C(=O)N[C@@H](Cc1ccc(O)cc1)C(=O)O [BK-Ser-Tyr] (H-RPPGFSPFRSY-OH; N-terminus and C-terminus assumed)	
